Data on one molecule can be found in patent publication US8629251B2, “Specific detection and quantification of phosphatidic acid using an Arabidopsis trigalactosyldiacylglycerol-4 (TGD4) protein” (Board of Trustees of Michigan State University, priority 2008, dated 2014).

Format in all cases: binding
Assay [1] has as its target Arabidopsis TGD2, DsRed fusion of the 25-mer minimal domain (residues 201-225, SEQ ID NO:12), K221A (Arabidopsis thaliana, UniProt Q9LTR2, K221A). The experiment in a line: Liposome-association assay, point mutant K221A of the minimal domain. Particulars: 100% PA liposomes, FIG. 4C. Here is the method: Some reports have identified that TGD2 PA-binding regions involve basic amino acids and/or tryptophan residues (10). […] Based on sequence similarity of TGD2 to its closely related homologs in plants and green algae, several charged and/or conserved amino acids were picked as potential interesting residues in the 25-mer minimal domain for possibly mediating interactions with PA. An alanine screen was then performed to evaluate these residues within a minimal PA binding region of TGD2 (i.e., for example, SEQ ID NO:12). Point mutations were generated in the 25-mer minimal domain and fused with DsRed to test PA binding by liposome-association assay using 100% PA liposomes.
The liposome association assay was performed as previously reported. (31). […]
Liposomes (200 μg) were mixed with purified DsRed-TGD2 fusion protein and TBS to make a final 100 μL solution. […] The liposome pellet mixed with sample buffer was analyzed by SDS-PAGE (28). […]
The protein band was visualized by chemiluminescent detection kit from Sigma. The autoradiography film was scanned, distinct protein bands were quantified using computer software Multi Gauge V3.0 (Fujifilm USA, Valhalla, N.Y.) and resulted data were plotted and analyzed by OriginPro8 (Origin lab corporation, Northampton, Mass.).

In assay [2] the target is T1, Arabidopsis TGD2, DsRed-TGD2C WT fusion protein, residues 119-381, SEQ ID NO:107 (Arabidopsis thaliana, UniProt Q9LTR2).
T1 sequence (Q9LTR2 121-381): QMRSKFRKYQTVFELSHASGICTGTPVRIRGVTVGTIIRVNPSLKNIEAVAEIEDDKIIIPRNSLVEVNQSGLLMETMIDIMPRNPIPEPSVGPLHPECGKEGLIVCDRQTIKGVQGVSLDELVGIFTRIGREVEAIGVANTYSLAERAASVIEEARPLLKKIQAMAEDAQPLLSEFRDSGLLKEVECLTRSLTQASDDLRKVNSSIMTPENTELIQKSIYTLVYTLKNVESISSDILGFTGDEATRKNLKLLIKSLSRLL
The assay can be described thus: Protein-lipid overlay assay, DsRed-TGD2C WT. To be noted: commercial phospholipid membrane strip. Here is the method: Membrane lipid strips were purchased from Echelon Biosciences (Salt Lake City, Utah). The strips were first blocked with 3% bovine serum albumin in TBST (10 mM Tris-HCl, pH 8.0, 150 mM NaCl, and 0.25% Tween-20) for two hours and incubated in 0.5 μg/mL DsRed-TGD2 fusion protein solution in the blocking buffer at 4° C. overnight. The strips were washed 10 min for 3 times with TBST the next day and soaked in 3% bovine serum albumin in TBST with a Penta-His mouse monoclonal antibody (Sigma-Aldrich, St. Louis, Mo.) at 1:2,000 dilution at 4° C. overnight. The strips were washed twice with TBST and soaked in 3% bovine serum albumin in TBST with horseradish peroxidase-conjugated anti mouse antibody (Bio-Rad, Hercules, Calif.) at 1:20,000 dilution for an hour at room temperature. Following washing with TBST for 1 hour, the protein was detected by using the chemiluminescent detection system (Sigma-Aldrich).

Assay [3] concerns the target T2, Arabidopsis TGD4, TGD4N-DsRED-His (N-terminal fragment 1-286, SEQ ID NO:130) (Arabidopsis thaliana, UniProt Q9M903).
T2 construct: made in house; host or cells: Escherichia coli BL21 (DE3)
T2 sequence (Q9M903 1-286): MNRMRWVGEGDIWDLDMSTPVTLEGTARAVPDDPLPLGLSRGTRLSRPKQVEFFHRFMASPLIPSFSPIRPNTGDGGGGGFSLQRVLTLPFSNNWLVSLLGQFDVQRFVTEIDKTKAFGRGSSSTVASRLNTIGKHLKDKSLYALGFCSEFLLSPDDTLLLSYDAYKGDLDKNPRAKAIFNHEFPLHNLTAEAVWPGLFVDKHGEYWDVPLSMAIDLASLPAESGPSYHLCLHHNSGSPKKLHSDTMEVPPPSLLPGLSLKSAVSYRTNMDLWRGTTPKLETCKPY
The assay can be described thus: Liposome association assay, TGD4N-DsRED-His. Particulars: dioleoyl-PtdOH/dioleoyl-PtdCho liposomes, 0 to 80% PtdOH, FIG. 19B. Here is the method:
Liposome Association Assay:
The liposome association assay was adapted from (Awai et al., 2006, Lu and Benning, 2009) with minor modifications. Dioleoyl-PtdCho and PtdOH with different acyl chain lengths and desaturation levels were used for making liposomes. In other liposomes 1-palmitoyl-2-(12-((7-nitro-2-1,3-benzoxadiazol-4-yl)amino)dodecanoyl)-sn-glycero-3-phosphate (NBD-PtdOH; Avanti, Alabaster, Ala.) was used. The lipids were mixed at indicated ratios to give a total lipid amount of 250 μg. The lipids were dried under a stream of nitrogen, resuspended in 0.5 ml TBS buffer with 0.2 M choline chloride and hydrated at 37° C. for 1 hour followed by vigorous vortexing for 2 minutes. The resulting multi-lamellar vesicles were centrifuged at 13,000×g for 10 minutes and then washed once with TBS buffer containing 0.2 M choline chloride. The liposomes were resuspended into 100 μl TBS buffer with 0.2 M choline chloride and incubated with 2 μg purified DsRED-TGD4-His protein and its derivatives. The protein liposome mixture was incubated on ice for 30 minutes followed by centrifugation at 13,000×g for 10 minutes and two washes with 500 μl TBS containing 0.2 M choline chloride. The resulting protein-liposome pellet was resuspended in 20 μl 2× Laemmli buffer (Laemmli, 1970) and processed by SDS-PAGE (Shapiro and Maizel, 1969).

Chain of Arabidopsis TGD2, DsRed fusion of the 25-mer minimal domain (residues 201-225, SEQ ID NO:12), K221A (Q9LTR2 201-225 K221A): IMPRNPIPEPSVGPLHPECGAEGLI

As to `CCCCCCCC/C=C\CCCCCCCC(=O)OC[C@H](COP(=O)(O)O)OC(=O)CCCCCCC/C=C\CCCCCCCC` [PA, phosphatidic acid], in assay [1], the PA binding entry is on record as “significantly reduced the amount of interaction with PA-liposomes”. Further, the “binding to lipids on membrane strip” value in assay [2] is reported as “shows specificity for PA over other lipids”. Moreover, in assay [3], the PtdOH binding affinity entry is “comparable to the full-length protein DsRED-TGD4-His”.
